From patent US10570075B2, “Compounds” (DSM IP ASSETS B.V., priority 2015, dated 2020)
pEC50: −log10 of the molar value.

Target: T1, human vitamin D receptor (VDR) (Homo sapiens, UniProt P11473)
T1 construct: expressed in transfected cells; host or cells: HEK293 cells (ATCC), transient polyethylene-imine-based transfection
T1 sequence (P11473 127-423 limits assumed): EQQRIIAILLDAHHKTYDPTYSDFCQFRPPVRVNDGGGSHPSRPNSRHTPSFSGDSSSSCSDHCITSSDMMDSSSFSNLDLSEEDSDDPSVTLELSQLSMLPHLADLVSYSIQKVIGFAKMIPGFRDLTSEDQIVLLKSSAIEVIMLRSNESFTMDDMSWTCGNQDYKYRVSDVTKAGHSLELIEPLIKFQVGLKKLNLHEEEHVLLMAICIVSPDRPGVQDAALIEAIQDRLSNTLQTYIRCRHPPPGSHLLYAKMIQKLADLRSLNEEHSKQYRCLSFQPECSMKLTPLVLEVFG
Test: Human vitamin D receptor (VDR) agonist activity, GAL4-VDR LBD luciferase transactivation assay in HEK293 cells
Type: cell-based
Settings: transiently transfected HEK293 cells, VDR LBD-GAL4 DBD hybrid receptor, pFR-Luc luciferase reporter, 16 h incubation; read-out: Effective concentrations of half maximal activation (EC50)
Source text: By way of example, the human vitamin D receptor (VDR) agonist activity of the claimed compounds can be tested using a cell based transactivation assay in an eukaryotic cell line. After a co-transfection, using a reporter plasmid construct and a hybrid receptor construct containing the ligand-binding domain of the human VDR linked to the DNA-binding domain of the yeast transcription factor GAL4, the cultured cells were stimulated by the VDR agonists. The hybrid VDR-GAL4 receptor binds the VDR agonists and transactivates luciferase reporter expression through the GAL4-response elements in the promoter of the luciferase gene (reporter construct). The VDR agonist binding and transactivation is determined by measuring the luciferase luminescence activity. The effective concentration of half maximal activation (EC50) was determined for the VDR agonists by means of dose-response experiments. The details of the protocol method of this test according to the invention are described in the example section. […]

pEC50: 8.10
SMILES: CC/C(=C\C=C\C(O)(C(F)(F)F)C(F)(F)F)c1cccc(CCc2ccc(CO)c(C(C)O)c2)c1 (racemic) [I-a, (3E,5E)-1,1,1-trifluoro-6-(3-(3-(1-hydroxyethyl)-4-(hydroxymethyl)phenethyl)phenyl)-2-(trifluoromethyl)octa-3,5-dien-2-ol]
